Assay results as given in PMC12016938, “A small molecule PKCε inhibitor reduces hyperalgesia induced by paclitaxel or opioid withdrawal” (JCI Insight, 2025).

Columns and labels:
[1] = tested on: self-administration (addictive potential); experiment: I.v. self-administration of CP612, between-session progressive ratio and demand curve; settings: rat, in vivo
Experimental: We tested the addictive potential of CP612 by examining the extent to which rats are willing to work to obtain CP612. Rats were initially trained to self-administer either saline, morphine (500 μg/kg/i.v. infusion), or 1 of 3 different doses of CP612 (75, 150, or 300 μg/kg/i.v. infusion) for 4 days at fixed ratio 1 (FR1, where 1 nose poke delivers 1 infusion).
During the second phase, the ratio to obtain an infusion increased geometrically every other day (FR1, FR3, FR6, FR12, FR24, FR48, and FR96).
Data (number of self-infusions) were also fitted in an economic-demand curve, which provides an estimate of the motivation to obtain drugs and their addictive potential ([20]). We measured elasticity (α), which is the relative change in consumption as a function of price (i.e., ratio of nose pokes required to obtain an infusion). Behavior is considered “inelastic” when consumption is insensitive to price and “elastic” when consumption is sensitive to price. We also measured Pmax, which is the price at which intake switches from inelastic to elastic. […] (Figure 8B).
Rats not immediately anesthetized were eliminated from the study.
Following this initial acquisition phase at FR1, the ratio to obtain the drug was increased geometrically every other day: FR3 (3 nose pokes are required to obtain 1 infusion of morphine), FR6, FR12, FR24, FR48, and FR96. This allows for analysis of drug consumption as a function of “price” using demand curves for behavioral economics, which can estimate the motivation to obtain drugs and their “addictive potential” ([20]). For this, data from each rat were fitted to the equation log Q = log Q0 + k (e ^–α(Q0 ^C) – 1), where Q represents consumption (number of self-infusions), and Q0 represents the level of consumption at the lowest price. C represents price for the drug (i.e., the ratio), and k is set to a constant accounting for the estimated range of consumption in logarithmic units (k = 4 in these studies). The symbol α is the relative change in consumption across changes in price (ratio). Behavior is considered “inelastic” when consumption is insensitive to price (i.e., the curve is flat, and consumption is maintained despite increases in price), and it switches to “elastic” when consumption is sensitive to price (i.e., when the curve is steep and consumption declines with increases in price). […] We also compared groups for their average intake in the consumption-price curves by measuring α (elasticity) and Pmax.

[2] = tested on: morphine self-administration; assay type: in vivo; settings: morphine 500 µg/kg/infusion alone, individual rats and group mean
Experimental: Because many patients with chronic pain take opioids for pain management ([8], [9]), we wanted to know if CP612 would change opioid intake. Therefore, we investigated if adding CP612 to the morphine solution during self-administration (i.e., a cocktail of morphine and CP612) modifies self-administration of morphine. We tested rats from the prior experiment for self-administration of morphine (500 μg/kg/i.v. infusion). Rats were first tested under a FR6 to reestablish responding.
Rats not immediately anesthetized were eliminated from the study. This excluded 2 rats from all experiments.

[3] = tested on: paclitaxel-induced hyperalgesia; experiment: Paclitaxel-induced hyperalgesia, Randall-Selitto paw pressure test; settings: male rats; 1 mg/kg i.p. on days 1, 3, 5, 7
Experimental: We tested if CP612 reverses this hyperalgesia. Male rats received repeated injections of paclitaxel (1 mg/kg, i.p. on days 1, 3, 5, and 7). Twenty-four hours after the last dose of paclitaxel, rats were administered vehicle (2 mL/kg, i.p.) or CP612 (20 mg/kg, i.p.).
Mechanical nociceptive thresholds in rats were quantified by the Randall-Selitto paw pressure test using an Ugo Basile Analgesy-Meter. This device applies a linearly increasing mechanical force to the dorsum or plantar region of the rat hind paw. The mechanical nociceptive threshold is defined as the force in grams at which a rat withdraws its paw. The higher the force to elicit paw withdrawal, the higher the pain threshold (and the lower the sensitivity to pain). For studies testing nociceptive thresholds after the PKCε activator ψεRACK, or after the cancer chemotherapeutic drug paclitaxel, rats were placed into cylindrical acrylic restrainers for 40 minutes before starting each session. The restrainers had lateral ports to allow access to the hind paw, as previously described ([35]), and pain thresholds were measured by applying force to the dorsum of the hind paw. Prior to starting experiments, baseline mechanical nociceptive threshold was obtained as the mean of 2–3 readings on 1 hind paw in each rat.

CN1CC[C@]23c4c5ccc(O)c4O[C@H]2[C@@H](O)C=C[C@H]3[C@H]1C5 [Mor]
AVG AH (FR3) [1]: 25.72 | AVG AH (FR6) [1]: 41.83 | AVG AH (FR12) [1]: 75.17 | AVG AH (FR24) [1]: 136.00 | AVG AH (FR48) [1]: 160.11 | AVG AH (FR96) [1]: 163.28 | AVG IH (FR1_D1 to D4) [1]: 7.83 | AVG IH (FR1_Last 2 FR1 days) [1]: 4.44 | AVG IH (FR1_Last 4 FR1 days) [1]: 6.31 | AVG IH (FR3) [1]: 9.28 | AVG IH (FR6) [1]: 8.33 | AVG IH (FR12) [1]: 9.39 | AVG IH (FR24) [1]: 10.72 | AVG IH (FR48) [1]: 14.00 | AVG IH (FR96) [1]: 15.22 | AVG Inf (FR3) [1]: 7.00 | AVG Inf (FR6) [1]: 6.22 | AVG Inf (FR12) [1]: 5.56 | AVG Inf (FR24) [1]: 5.00 | AVG Inf (FR48) [1]: 2.83 | AVG Inf (FR96) [1]: 1.17 | AVG Latency (FR1_D1 to D4) [1]: 2.60 | AVG Latency (FR1_Last 2 FR1 days) [1]: 0.81 | AVG Latency (FR1_Last 4 FR1 days) [1]: 0.93 | AVG Latency (FR3) [1]: 0.62 | AVG Latency (FR6) [1]: 1.19 | AVG Latency (FR12) [1]: 1.12 | AVG Latency (FR24) [1]: 1.19 | AVG Latency (FR48) [1]: 0.69 | AVG Latency (FR96) [1]: 0.92 | D1 AH (FR1) [1]: 13.44 | D1 AH (FR3) [1]: 24.67 | D1 AH (FR6) [1]: 38.44 | D1 AH (FR12) [1]: 75.11 | D1 AH (FR24) [1]: 135.67 | D1 AH (FR48) [1]: 167.78 | D1 AH (FR96) [1]: 169.67 | D1 IH (FR1) [1]: 11.56 | D1 IH (FR3) [1]: 9.11 | D1 IH (FR6) [1]: 7.11 | D1 IH (FR12) [1]: 9.22 | D1 IH (FR24) [1]: 10.56 | D1 IH (FR48) [1]: 13.22 | D1 IH (FR96) [1]: 17.11 | D1 Inf (FR1) [1]: 8.78 | D1 Inf (FR3) [1]: 6.56 | D1 Inf (FR6) [1]: 5.67 | D1 Inf (FR12) [1]: 5.67 | D1 Inf (FR24) [1]: 4.89 | D1 Inf (FR48) [1]: 2.89 | D1 Inf (FR96) [1]: 1.33 | D1 Latency (FR1) [1]: 7.37 | D1 Latency (FR3) [1]: 0.52 | D1 Latency (FR6) [1]: 0.51 | D1 Latency (FR12) [1]: 0.93 | D1 Latency (FR24) [1]: 0.99 | D1 Latency (FR48) [1]: 0.71 | D1 Latency (FR96) [1]: 1.02 | D2 AH (FR1) [1]: 11.44 | D2 AH (FR3) [1]: 26.78 | D2 AH (FR6) [1]: 45.22 | D2 AH (FR12) [1]: 75.22 | D2 AH (FR24) [1]: 136.33 | D2 AH (FR48) [1]: 152.44 | D2 AH (FR96) [1]: 156.89 | D2 IH (FR1) [1]: 6.89 | D2 IH (FR3) [1]: 9.44 | D2 IH (FR6) [1]: 9.56 | D2 IH (FR12) [1]: 9.56 | D2 IH (FR24) [1]: 10.89 | D2 IH (FR48) [1]: 14.78 | D2 IH (FR96) [1]: 13.33 | D2 Inf (FR1) [1]: 8.89 | D2 Inf (FR3) [1]: 7.44 | D2 Inf (FR6) [1]: 6.78 | D2 Inf (FR12) [1]: 5.44 | D2 Inf (FR24) [1]: 5.11 | D2 Inf (FR48) [1]: 2.78 | D2 Inf (FR96) [1]: 1.00 | D2 Latency (FR1) [1]: 0.74 | D2 Latency (FR3) [1]: 0.72 | D2 Latency (FR6) [1]: 1.88 | D2 Latency (FR12) [1]: 1.31 | D2 Latency (FR24) [1]: 1.39 | D2 Latency (FR48) [1]: 0.68 | D2 Latency (FR96) [1]: 0.82 | D3 AH (FR1) [1]: 14.11 | D3 IH (FR1) [1]: 8.44 | D3 Inf (FR1) [1]: 9.22 | D3 Latency (FR1) [1]: 1.40 | D4 AH (FR1) [1]: 14.00 | D4 IH (FR1) [1]: 4.44 | D4 Inf (FR1) [1]: 9.56 | D4 Latency (FR1) [1]: 0.90 | last AH (FR1) [1]: 14.00 | last IH (FR1) [1]: 4.44 | last Inf (FR1) [1]: 9.78 | last Latency (FR1) [1]: 0.71 | last-1 AH (FR1) [1]: 14.00 | last-1 IH (FR1) [1]: 4.44 | last-1 Inf (FR1) [1]: 9.56 | last-1 Latency (FR1) [1]: 0.90 | last-2 AH (FR1) [1]: 14.11 | last-2 IH (FR1) [1]: 8.44 | last-2 Inf (FR1) [1]: 9.22 | last-2 Latency (FR1) [1]: 1.40 | last-3 AH (FR1) [1]: 12.67 | last-3 IH (FR1) [1]: 7.89 | last-3 Inf (FR1) [1]: 8.89 | last-3 Latency (FR1) [1]: 0.69 | D3 Breakin Point (PR) ([2]; Day 3, progressive ratio): 38.3 | D1 AH (FR6) ([2]; active hole, Day 1, fixed ratio): 49.2 | D2 AH (FR6) ([2]; active hole, Day 2, fixed ratio): 68.6 | D3 AH (PR) ([2]; active hole, Day 3, progressive ratio): 186.1 | D1 IH (FR6) ([2]; inactive hole, Day 1, fixed ratio): 4.7 | D2 IH (FR6) ([2]; inactive hole, Day 2, fixed ratio): 5.2 | D3 IH (PR) ([2]; inactive hole, Day 3, progressive ratio): 8.8 | D1 Inf (FR6) ([2]; infusions, Day 1, fixed ratio): 6.7 | D2 Inf (FR6) ([2]; infusions, Day 2, fixed ratio): 9.4 | D3 Inf (PR) ([2]; infusions, Day 3, progressive ratio): 10.5 | D1 mg/kg (FR6) ([2]; intake, Day 1, fixed ratio): 3.3 mg/kg | D2 mg/kg (FR6) ([2]; intake, Day 2, fixed ratio): 4.7 mg/kg | D3 mg/kg (PR) ([2]; intake, Day 3, progressive ratio): 5.2 mg/kg | D1 Latency (FR6) ([2]; time to first self-administered infusion, Day 1, fixed ratio): 3.3 min | D2 Latency (FR6) ([2]; time to first self-administered infusion, Day 2, fixed ratio): 2.8 min

CC(=O)O[C@H]1C(=O)[C@@]2(C)[C@H]([C@H](OC(=O)c3ccccc3)[C@]3(O)C[C@H](OC(=O)[C@H](O)[C@@H](NC(=O)c4ccccc4)c4ccccc4)C(C)=C1C3(C)C)[C@]1(OC(C)=O)CO[C@@H]1C[C@@H]2O [Paclitaxel]
Effect of paclitaxel on nociceptive threshold [3]: induced hyperalgesia
